Legend:
[1] = target: Vps34 (Homo sapiens, UniProt Q8NEB9); experiment: Kinase Glo Luminescent Kinase Assay (Kglo), assay C; assay type: biochemical; settings: read-out: Assay C VPS34 IC50
Experimental: Kinase Glo Luminescent Kinase Assay (Kglo) for Pb 3-Kinase Alpha (A), Pb 3-Kinase Beta (B), Vps34 (C), Pb 4-Kinase Beta (D)
The Kinase Glo Luminescent Kinase Assay (Promega, Madison/Wis., USA) is a homogeneous HTS method of measuring kinase activity by quantifying the amount of ATP remaining in solution following a kinase reaction.
L-α-phosphatidylinositol (PI), provided as 10 mg/ml solution in methanol, was transferred into a glass tube and dried under a nitrogen beam. It was then resuspended in 3% OctylGlucoside (1-0-n-octyl-beta-D-glucopyranoside) by vortexing and stored at 4° C. 5 μL of a mix of PI/OctylGlucoside with the PI 3-kinase alpha and PI 3-kinase beta subtypes, or Vps34 or PI 4-kinase beta were added. Kinase reactions were started by the addition of 5 μl of an ATP-mix containing in a final volume 10 μL 10 mM TRIS-HCl pH 7.5, 3 mM MgCl2, 50 mM NaCl, 0.05% CHAPS, 1 mM DTT and 1 μM ATP at room temperature.
All fits were performed with the program XLfit4 (ID Business Solutions, Guildford, UK).

[2] = target: mTOR (Homo sapiens, UniProt P42345); experiment: Lanthascreen kinase binding assay, assay G; settings: read-out: Assay G mTOR IC50
Experimental: Lanthascreen™ Kinase Binding Assay for mTOR (G)
Binding of an inhibitor to the kinase competes for binding with the tracer, resulting in a loss of FRET.
50 nL of compound dilutions were dispensed onto white 384-well small volume polystyrene plate.

[3] = target: PI 4-kinase beta (Homo sapiens, UniProt Q9UBF8); experiment: Kinase Glo Luminescent Kinase Assay (Kglo), assay D; assay type: biochemical; settings: read-out: Assay D PI4Kβ IC50
Sequence of PI 4-kinase beta (Q9UBF8 whole entry): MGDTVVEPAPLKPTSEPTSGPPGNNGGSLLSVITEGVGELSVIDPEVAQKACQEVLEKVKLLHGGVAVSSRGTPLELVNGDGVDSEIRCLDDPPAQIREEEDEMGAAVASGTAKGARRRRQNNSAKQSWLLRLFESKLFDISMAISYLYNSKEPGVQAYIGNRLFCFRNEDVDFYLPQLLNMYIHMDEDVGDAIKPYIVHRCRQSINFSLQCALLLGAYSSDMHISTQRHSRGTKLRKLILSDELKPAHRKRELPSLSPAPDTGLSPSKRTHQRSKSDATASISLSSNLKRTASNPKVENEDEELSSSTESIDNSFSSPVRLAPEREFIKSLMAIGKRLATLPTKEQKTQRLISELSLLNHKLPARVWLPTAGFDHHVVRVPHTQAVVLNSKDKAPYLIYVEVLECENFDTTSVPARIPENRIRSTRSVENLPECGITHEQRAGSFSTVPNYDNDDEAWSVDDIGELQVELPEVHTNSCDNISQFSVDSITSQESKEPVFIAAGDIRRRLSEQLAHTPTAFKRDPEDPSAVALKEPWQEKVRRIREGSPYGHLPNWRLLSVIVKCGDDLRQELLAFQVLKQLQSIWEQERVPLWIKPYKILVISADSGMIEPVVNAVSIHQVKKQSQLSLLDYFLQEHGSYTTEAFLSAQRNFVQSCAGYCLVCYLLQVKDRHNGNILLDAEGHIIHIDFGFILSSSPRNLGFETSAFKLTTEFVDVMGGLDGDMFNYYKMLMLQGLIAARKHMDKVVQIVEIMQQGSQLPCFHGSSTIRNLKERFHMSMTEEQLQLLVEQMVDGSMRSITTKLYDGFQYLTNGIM

[4] = target: PI 3-kinase beta (Homo sapiens, UniProt P42338); experiment: Kinase Glo Luminescent Kinase Assay (Kglo), assay B; assay type: biochemical; settings: read-out: Assay B PI3Kβ IC50
Sequence of PI 3-kinase beta (P42338 whole entry): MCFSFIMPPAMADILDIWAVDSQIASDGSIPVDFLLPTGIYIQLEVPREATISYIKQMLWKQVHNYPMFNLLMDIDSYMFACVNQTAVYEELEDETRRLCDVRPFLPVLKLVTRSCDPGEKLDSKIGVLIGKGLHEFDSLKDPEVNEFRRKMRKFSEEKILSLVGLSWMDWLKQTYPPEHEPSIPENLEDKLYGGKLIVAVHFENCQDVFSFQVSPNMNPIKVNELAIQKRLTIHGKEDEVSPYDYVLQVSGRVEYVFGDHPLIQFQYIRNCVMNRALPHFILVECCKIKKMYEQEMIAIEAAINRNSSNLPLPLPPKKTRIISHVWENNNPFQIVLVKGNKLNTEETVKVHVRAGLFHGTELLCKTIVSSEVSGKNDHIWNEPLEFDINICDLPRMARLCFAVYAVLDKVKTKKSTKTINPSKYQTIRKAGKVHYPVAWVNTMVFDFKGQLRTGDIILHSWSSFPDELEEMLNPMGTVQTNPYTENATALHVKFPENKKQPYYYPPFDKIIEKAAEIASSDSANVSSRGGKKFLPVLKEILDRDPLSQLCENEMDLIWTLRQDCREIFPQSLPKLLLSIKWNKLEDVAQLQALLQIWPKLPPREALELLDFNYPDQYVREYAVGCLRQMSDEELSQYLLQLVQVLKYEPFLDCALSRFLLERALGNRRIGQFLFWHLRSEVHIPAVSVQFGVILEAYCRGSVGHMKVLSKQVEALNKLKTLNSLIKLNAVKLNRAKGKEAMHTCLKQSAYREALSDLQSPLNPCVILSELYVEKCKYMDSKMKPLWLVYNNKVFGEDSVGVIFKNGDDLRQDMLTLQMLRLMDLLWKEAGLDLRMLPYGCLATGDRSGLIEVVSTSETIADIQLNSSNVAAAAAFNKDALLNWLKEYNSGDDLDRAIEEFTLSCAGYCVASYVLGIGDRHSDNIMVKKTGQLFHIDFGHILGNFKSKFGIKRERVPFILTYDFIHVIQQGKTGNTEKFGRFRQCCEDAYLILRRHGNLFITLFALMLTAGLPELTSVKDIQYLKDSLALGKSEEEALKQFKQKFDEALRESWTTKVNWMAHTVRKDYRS
Sequence of PI 3-kinase beta (P27986 461-568 partner): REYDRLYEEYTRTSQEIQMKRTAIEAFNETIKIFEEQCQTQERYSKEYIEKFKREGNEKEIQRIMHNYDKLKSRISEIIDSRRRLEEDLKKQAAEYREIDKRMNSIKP

[5] = target: PI 3-kinase delta (Homo sapiens, UniProt O00329); experiment: TR-FRET Adapta assay, assay F; settings: read-out: Assay F PI3Kδ IC50
Sequence of PI 3-kinase delta (O00329 whole entry): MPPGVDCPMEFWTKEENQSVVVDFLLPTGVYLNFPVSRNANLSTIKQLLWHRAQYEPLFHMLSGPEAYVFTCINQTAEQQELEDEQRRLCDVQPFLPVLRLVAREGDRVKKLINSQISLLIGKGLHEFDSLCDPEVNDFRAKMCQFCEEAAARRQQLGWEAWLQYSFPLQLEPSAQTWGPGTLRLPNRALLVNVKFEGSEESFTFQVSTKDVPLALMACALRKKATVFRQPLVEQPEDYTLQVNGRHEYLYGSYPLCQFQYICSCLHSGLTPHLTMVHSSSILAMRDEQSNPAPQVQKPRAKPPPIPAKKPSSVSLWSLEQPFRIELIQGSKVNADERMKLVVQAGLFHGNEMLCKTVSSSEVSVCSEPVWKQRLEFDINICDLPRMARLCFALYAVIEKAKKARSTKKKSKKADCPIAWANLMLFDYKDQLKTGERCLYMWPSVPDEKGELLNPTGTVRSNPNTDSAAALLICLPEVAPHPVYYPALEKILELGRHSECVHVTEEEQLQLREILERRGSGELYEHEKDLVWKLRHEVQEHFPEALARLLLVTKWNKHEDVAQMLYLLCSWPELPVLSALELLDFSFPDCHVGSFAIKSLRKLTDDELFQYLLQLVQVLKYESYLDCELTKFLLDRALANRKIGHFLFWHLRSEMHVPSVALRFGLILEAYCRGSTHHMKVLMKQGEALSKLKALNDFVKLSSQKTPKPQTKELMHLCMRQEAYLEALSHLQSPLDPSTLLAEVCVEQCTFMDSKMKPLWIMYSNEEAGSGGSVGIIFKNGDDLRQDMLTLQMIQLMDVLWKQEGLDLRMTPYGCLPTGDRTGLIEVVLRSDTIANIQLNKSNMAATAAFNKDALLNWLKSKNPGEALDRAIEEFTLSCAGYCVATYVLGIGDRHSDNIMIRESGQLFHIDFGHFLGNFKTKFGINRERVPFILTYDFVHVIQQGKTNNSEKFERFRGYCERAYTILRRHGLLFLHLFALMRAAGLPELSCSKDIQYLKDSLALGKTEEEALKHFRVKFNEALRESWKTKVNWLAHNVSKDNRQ
Sequence of PI 3-kinase delta (P27986 461-568 partner): as the sequence (P27986 461-568 partner) above

[6] = target: PI 3-kinase gamma (Homo sapiens, UniProt P48736); experiment: TR-FRET Adapta assay, assay E; assay type: biochemical; settings: read-out: Assay E PI3Kγ IC50
Sequence of PI 3-kinase gamma (P48736 whole entry): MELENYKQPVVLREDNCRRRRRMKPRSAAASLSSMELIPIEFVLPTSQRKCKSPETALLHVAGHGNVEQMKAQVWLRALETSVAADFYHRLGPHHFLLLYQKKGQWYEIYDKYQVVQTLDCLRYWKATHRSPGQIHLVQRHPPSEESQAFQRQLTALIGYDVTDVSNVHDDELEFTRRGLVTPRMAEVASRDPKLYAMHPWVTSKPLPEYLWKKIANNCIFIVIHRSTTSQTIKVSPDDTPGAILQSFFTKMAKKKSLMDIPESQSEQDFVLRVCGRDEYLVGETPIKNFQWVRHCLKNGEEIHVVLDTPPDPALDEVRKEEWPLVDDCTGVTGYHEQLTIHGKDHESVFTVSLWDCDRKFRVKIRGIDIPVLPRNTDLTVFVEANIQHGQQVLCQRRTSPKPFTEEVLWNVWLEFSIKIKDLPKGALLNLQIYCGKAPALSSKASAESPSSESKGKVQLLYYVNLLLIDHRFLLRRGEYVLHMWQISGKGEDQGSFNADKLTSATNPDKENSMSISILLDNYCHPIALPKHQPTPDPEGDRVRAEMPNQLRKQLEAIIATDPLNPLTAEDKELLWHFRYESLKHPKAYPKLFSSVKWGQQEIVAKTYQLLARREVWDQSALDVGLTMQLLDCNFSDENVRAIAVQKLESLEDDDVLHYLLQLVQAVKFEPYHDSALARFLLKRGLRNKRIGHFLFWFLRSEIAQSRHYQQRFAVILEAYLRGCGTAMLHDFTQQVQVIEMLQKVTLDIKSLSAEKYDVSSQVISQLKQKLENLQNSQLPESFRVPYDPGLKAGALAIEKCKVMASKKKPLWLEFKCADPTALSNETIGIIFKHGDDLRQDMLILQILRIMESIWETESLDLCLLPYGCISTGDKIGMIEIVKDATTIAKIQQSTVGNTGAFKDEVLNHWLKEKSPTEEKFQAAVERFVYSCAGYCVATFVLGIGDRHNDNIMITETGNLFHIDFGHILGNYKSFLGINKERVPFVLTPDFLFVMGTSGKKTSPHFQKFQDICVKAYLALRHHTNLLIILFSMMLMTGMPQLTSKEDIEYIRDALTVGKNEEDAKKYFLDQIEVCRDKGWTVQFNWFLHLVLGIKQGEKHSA

[7] = target: PI 3-kinase alpha (Homo sapiens, UniProt P42336); experiment: Kinase Glo Luminescent Kinase Assay (Kglo), assay A; assay type: biochemical; settings: read-out: Assay A PI3Kα IC50

Sequence of Vps34 (Q8NEB9 whole entry, species assumed): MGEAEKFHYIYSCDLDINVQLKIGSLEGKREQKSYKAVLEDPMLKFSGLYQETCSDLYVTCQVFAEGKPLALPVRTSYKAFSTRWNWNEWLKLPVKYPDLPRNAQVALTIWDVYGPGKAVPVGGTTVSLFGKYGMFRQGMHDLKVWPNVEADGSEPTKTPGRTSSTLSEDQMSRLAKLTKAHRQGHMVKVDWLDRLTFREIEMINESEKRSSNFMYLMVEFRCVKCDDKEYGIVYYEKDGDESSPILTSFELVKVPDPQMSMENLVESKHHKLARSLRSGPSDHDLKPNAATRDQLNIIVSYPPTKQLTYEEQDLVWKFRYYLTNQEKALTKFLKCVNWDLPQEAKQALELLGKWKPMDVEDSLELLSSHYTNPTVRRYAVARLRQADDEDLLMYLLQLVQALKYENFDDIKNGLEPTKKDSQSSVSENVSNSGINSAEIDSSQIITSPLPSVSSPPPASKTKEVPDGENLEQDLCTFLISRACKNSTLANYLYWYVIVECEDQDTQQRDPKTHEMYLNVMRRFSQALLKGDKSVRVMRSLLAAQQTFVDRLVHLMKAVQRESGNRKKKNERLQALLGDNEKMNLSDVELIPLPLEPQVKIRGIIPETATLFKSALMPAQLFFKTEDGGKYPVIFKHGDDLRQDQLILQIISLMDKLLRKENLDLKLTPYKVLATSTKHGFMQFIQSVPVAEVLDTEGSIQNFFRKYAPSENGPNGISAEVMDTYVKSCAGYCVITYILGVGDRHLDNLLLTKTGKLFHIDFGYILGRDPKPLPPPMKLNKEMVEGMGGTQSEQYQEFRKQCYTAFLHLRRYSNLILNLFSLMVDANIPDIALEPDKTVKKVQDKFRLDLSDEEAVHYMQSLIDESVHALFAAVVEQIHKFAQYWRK

Row | SMILES | IC50 [1] | IC50 [2] | IC50 [3] | IC50 [4] | IC50 [5] | IC50 [6] | IC50 [7]
1 | Cc1ccc(S(=O)(=O)NCC(C)(C)O)cc1-c1cnc(N)c(-c2cn(C)nc2C)n1 [Example 13] | > 10000 nM | > 10000 nM | 6500 nM | 1090 nM | – | – | –
2 | Cc1ncc(-c2nc(-c3cc(S(=O)(=O)NCCO)ccc3C)cnc2N)s1 [Example 45, 3-(5-Amino-6-(2-methylthiazol-5-yl)pyrazin-2-yl)-N-(2-hydroxyethyl)-4-methylbenzenesulfonamide] | 1100 nM | – | 1600 nM | 530 nM | 230 nM | – | –
3 | Cc1ncc(-c2nc(-c3cc(S(=O)(=O)NCC4COCCN4C)ccc3C)cnc2N)s1 (stereo not shown) [Example 45.12, 3-(5-Amino-6-(2-methylthiazol-5-yl)pyrazin-2-yl)-4-methyl-N-((4-methylmorpholin-3-yl)methyl)benzenesulfonamide] | 2600 nM | – | 1400 nM | 390 nM | 100 nM | 15 nM | 50 nM
4 | Cc1cc(-c2nc(-c3cc(S(=O)(=O)NCC(C)(C)O)ccc3C)cnc2N)on1 [Example 88, 3-(5-Amino-6-(3-methylisoxazol-5-yl)pyrazin-2-yl)-N-(2-hydroxy-2-methylpropyl)-4-methylbenzenesulfonamide] | – | – | 6100 nM | 2200 nM | 1100 nM | – | –
5 | Cc1ccc(S(=O)(=O)NCC(C)(C)CO)cc1-c1cnc(N)c(-c2nc(C3CC3)no2)n1 [Example 93, 3-(5-Amino-6-(3-cyclopropyl-1,2,4-oxadiazol-5-yl)pyrazin-2-yl)-N-(3-hydroxy-2,2-dimethylpropyl)-4-methylbenzenesulfonamide] | > 9100 nM | > 9100 nM | > 9100 nM | – | – | – | –
6 | Cc1ccc(S(=O)(=O)NCCC(C)(C)O)cc1-c1cnc(N)c(-c2ccnc(F)c2)n1 [Example 119.10] | > 9100 nM | 6400 nM | > 9100 nM | 6470 nM | 100 nM | 30 nM | 120 nM
7 | Cc1ccc(S(=O)(=O)NCCC(C)(C)O)cc1-c1cnc(N)c(-c2cncnc2)n1 [Example 119.20] | > 9100 nM | 4820 nM | > 9100 nM | > 9100 nM | 2080 nM | 508 nM | 1480 nM
8 | Cc1nc(-c2nc(-c3cc(S(=O)(=O)NCCC(C)(C)O)ccc3C)cnc2N)cs1 [Example 119.30] | > 9100 nM | 2880 nM | 4710 nM | 1500 nM | 110 nM | 13 nM | 170 nM
9 | Cc1ncc(-c2nc(-c3cc(S(=O)(=O)NCCC(C)(C)O)ccc3C)cnc2N)o1 [Example 119.40] | > 10000 nM | > 10000 nM | 6200 nM | 3500 nM | 180 nM | 23 nM | 150 nM
10 | Cc1ccc(S(=O)(=O)N2CC(F)(F)C(F)(F)C2)cc1-c1cnc(N)c(-n2cncn2)n1 [Example 127.8] | > 10000 nM | > 10000 nM | > 10000 nM | > 10000 nM | > 10000 nM | 1000 nM | 6000 nM
11 | Cc1ccc(S(=O)(=O)NCCCCCO)cc1-c1cnc(N)c(-n2cncn2)n1 [Example 127.9] | > 10000 nM | > 10000 nM | > 10000 nM | > 10000 nM | 3000 nM | 1600 nM | 2300 nM
12 | COCCCNS(=O)(=O)c1ccc(C)c(-c2cnc(N)c(-n3cncn3)n2)c1 [Example 127.10] | > 10000 nM | > 10000 nM | > 10000 nM | 9200 nM | 5500 nM | 320 nM | 1700 nM
13 | Cc1ccc(S(=O)(=O)NCC2(O)CCCCC2)cc1-c1cnc(N)c(-n2cncn2)n1 [Example 127.11] | > 10000 nM | > 10000 nM | > 10000 nM | 1300 nM | 760 nM | 270 nM | 980 nM

Reference: US10004732B2 (Novartis AG, priority 2014, dated 2018)
